Measured values reported in ChEMBL document CHEMBL3112553, “Synthesis and biological evaluation of novel C6-amino substituted 4-azasteroidal purine nucleoside analogues” (Bioorg Med Chem Lett, 2014).

Tests used:
Format in all cases: functional, cell-based
[1] = test system: MCF7; assay: Antiproliferative activity against human MCF7 cells by MTT assay
[2] = test system: HeLa; assay: Antiproliferative activity against human HeLa cells by MTT assay
[3] = test system: PC-3; assay: Antiproliferative activity against human PC3 cells by MTT assay

Structure (SMILES) | IC50 [1] [µM] | IC50 [2] [µM] | IC50 [3] [µM]
C[C@]12CCC(=O)N[C@@H]1CC[C@@H]1[C@@H]2CC[C@]2(C)O[C@H](n3cnc4c(NCCO)nc(Cl)nc43)CC[C@@H]12 | > 100 | > 100 | > 100
C[C@]12CCC(=O)N[C@@H]1CC[C@@H]1[C@@H]2CC[C@]2(C)O[C@H](n3cnc4c(N(CCO)CCO)ncnc43)CC[C@@H]12 | > 100 | > 100 | > 100
C[C@]12CCC(=O)N[C@@H]1CC[C@@H]1[C@@H]2CC[C@]2(C)O[C@H](n3cnc4c(N(CCO)CCO)nc(Cl)nc43)CC[C@@H]12 | > 100 | > 100 | > 100
CCN(CC)c1ncnc2c1ncn2[C@@H]1CC[C@H]2[C@@H]3CC[C@H]4NC(=O)CC[C@]4(C)[C@H]3CC[C@]2(C)O1 | > 100 | 33.8 | > 100
CCN(CC)c1nc(Cl)nc2c1ncn2[C@@H]1CC[C@H]2[C@@H]3CC[C@H]4NC(=O)CC[C@]4(C)[C@H]3CC[C@]2(C)O1 | 16.4 | 31.1 | 58.1
C[C@]12CCC(=O)N[C@@H]1CC[C@@H]1[C@@H]2CC[C@]2(C)O[C@H](n3cnc4c(NN)nc(Cl)nc43)CC[C@@H]12 | > 100 | > 100 | 2.99
CN(C)c1nc(Cl)nc2c1ncn2[C@@H]1CC[C@H]2[C@@H]3CC[C@H]4NC(=O)CC[C@]4(C)[C@H]3CC[C@]2(C)O1 | > 100 | 61.3 | > 100
CC(CO)Nc1nc(Cl)nc2c1ncn2[C@@H]1CC[C@H]2[C@@H]3CC[C@H]4NC(=O)CC[C@]4(C)[C@H]3CC[C@]2(C)O1 (stereo partly specified) | > 100 | > 100 | 2.84
C[C@]12CCC(=O)N[C@@H]1CC[C@@H]1[C@@H]2CC[C@]2(C)O[C@H](n3cnc4c(NCCN)nc(Cl)nc43)CC[C@@H]12 | 70.3 | 22.7 | 63.4

The remaining lines, values ahead:

IC50 [1] [µM] | IC50 [2] [µM] | IC50 [3] [µM] | Structure (SMILES)
> 100 | > 100 | 20.6 | C[C@]12CCC(=O)N[C@@H]1CC[C@@H]1[C@@H]2CC[C@]2(C)O[C@H](n3cnc4c(NCc5ccccc5)ncnc43)CC[C@@H]12
12.8 | 2.69 | 17.9 | C[C@]12CCC(=O)N[C@@H]1CC[C@@H]1[C@@H]2CC[C@]2(C)O[C@H](n3cnc4c(NCc5ccccc5)nc(Cl)nc43)CC[C@@H]12
32.7 | 28.2 | 44.2 | Cc1ccc(CNc2ncnc3c2ncn3[C@@H]2CC[C@H]3[C@@H]4CC[C@H]5NC(=O)CC[C@]5(C)[C@H]4CC[C@]3(C)O2)cc1
12.9 | 67.2 | 26.6 | Cc1ccc(CNc2nc(Cl)nc3c2ncn3[C@@H]2CC[C@H]3[C@@H]4CC[C@H]5NC(=O)CC[C@]5(C)[C@H]4CC[C@]3(C)O2)cc1
60.3 | 38.7 | > 100 | COc1ccc(CNc2ncnc3c2ncn3[C@@H]2CC[C@H]3[C@@H]4CC[C@H]5NC(=O)CC[C@]5(C)[C@H]4CC[C@]3(C)O2)cc1
> 100 | 10.1 | > 100 | COc1ccc(CNc2nc(Cl)nc3c2ncn3[C@@H]2CC[C@H]3[C@@H]4CC[C@H]5NC(=O)CC[C@]5(C)[C@H]4CC[C@]3(C)O2)cc1
34.8 | > 100 | 91.5 | C[C@]12CCC(=O)N[C@@H]1CC[C@@H]1[C@@H]2CC[C@]2(C)O[C@H](n3cnc4c(NCc5ccc(F)cc5)ncnc43)CC[C@@H]12
13.5 | 59.1 | > 100 | C[C@]12CCC(=O)N[C@@H]1CC[C@@H]1[C@@H]2CC[C@]2(C)O[C@H](n3cnc4c(NCc5ccc(F)cc5)nc(Cl)nc43)CC[C@@H]12
34.6 | > 100 | 87.2 | C[C@]12CCC(=O)N[C@@H]1CC[C@@H]1[C@@H]2CC[C@]2(C)O[C@H](n3cnc4c(NN)ncnc43)CC[C@@H]12
57.7 | 70.5 | > 100 | CN(C)c1ncnc2c1ncn2[C@@H]1CC[C@H]2[C@@H]3CC[C@H]4NC(=O)CC[C@]4(C)[C@H]3CC[C@]2(C)O1
> 100 | 66.2 | > 100 | C[C@]12CCC(=O)N[C@@H]1CC[C@@H]1[C@@H]2CC[C@]2(C)O[C@H](n3cnc4c(NCCN)ncnc43)CC[C@@H]12
> 100 | > 100 | 49.2 | C[C@]12CCC(=O)N[C@@H]1CC[C@@H]1[C@@H]2CC[C@]2(C)O[C@H](n3cnc4c(NCCO)ncnc43)CC[C@@H]12
> 100 | > 100 | 15.8 | CC(CO)Nc1ncnc2c1ncn2[C@@H]1CC[C@H]2[C@@H]3CC[C@H]4NC(=O)CC[C@]4(C)[C@H]3CC[C@]2(C)O1 (stereo partly specified)
